In PubChem BioAssay AID330 (DTP/NCI, 2004):
“And” between values parts separate entries of the source, which are not always exact repeats. Equal values may be shown once. Inconclusive results and toxic doses are left out.

Tested on: P388 leukemia ip, CD2F1 mice, survival T/C
Test: NCI In Vivo Anticancer Drug Screen. Data for tumor model P388 Leukemia (intraperitoneal) in CD2F1 (CDF1) mice
Details: endpoint: median survival time, higher = longer survival
Procedure, shortened: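 Mice carrying the transplanted tumor received test compound or vehicle. Survival was recorded in each group, and the value is the treated-group measurement divided by that of the vehicle-treated control group.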

[1] = dose: 50.0 mg/kg/injection, schedule: Q01DX005 (ip), vehicle: saline
[2] = dose: 12.5 mg/kg/injection, schedule: Q01DX005 (ip), vehicle: saline with Tween-80
[3] = dose: 50.0 mg/kg/injection, schedule: Q01DX005 (ip), vehicle: saline with Tween-80
[4] = dose: 30.0 mg/kg/injection, schedule: Q01DX005 (ip), vehicle: Klucel (hydroxypropylcellulose) (HPC)
[5] = dose: 60.0 mg/kg/injection, schedule: Q01DX005 (ip), vehicle: Klucel (hydroxypropylcellulose) (HPC)
[6] = dose: 120.0 mg/kg/injection, schedule: Q01DX005 (ip), vehicle: Klucel (hydroxypropylcellulose) (HPC)
[7] = dose: 240.0 mg/kg/injection, schedule: Q01DX005 (ip), vehicle: Klucel (hydroxypropylcellulose) (HPC)
[8] = dose: 50.0 mg/kg/injection, schedule: Q01DX009 (ip), vehicle: saline with Tween-80
[9] = dose: 100.0 mg/kg/injection, schedule: Q01DX009 (ip), vehicle: saline with Tween-80
[10] = dose: 200.0 mg/kg/injection, schedule: Q01DX009 (ip), vehicle: saline with Tween-80
[11] = dose: 200.0 mg/kg/injection, schedule: Q04DX003 (ip), vehicle: saline with Tween-80
[12] = dose: 400.0 mg/kg/injection, schedule: Q04DX003 (ip), vehicle: saline with Tween-80
[13] = dose: 50.0 mg/kg/injection, schedule: Q01DX009 (ip), vehicle: Klucel (hydroxypropylcellulose) (HPC)
[14] = dose: 100.0 mg/kg/injection, schedule: Q01DX009 (ip), vehicle: Klucel (hydroxypropylcellulose) (HPC)
[15] = dose: 200.0 mg/kg/injection, schedule: Q01DX009 (ip), vehicle: Klucel (hydroxypropylcellulose) (HPC)
[16] = dose: 50.0 mg/kg/injection, schedule: Q01DX005 (ip), vehicle: Klucel (hydroxypropylcellulose) (HPC)
[17] = dose: 100.0 mg/kg/injection, schedule: Q01DX005 (ip), vehicle: Klucel (hydroxypropylcellulose) (HPC)
[18] = dose: 200.0 mg/kg/injection, schedule: Q01DX005 (ip), vehicle: Klucel (hydroxypropylcellulose) (HPC)

In the case of `c1ccc(-c2nnc(-c3ccccc3)c3c2nn2ccc4ccccc4c32)cc1`, the T/C (dose: 100.0 mg/kg/injection, schedule: Q01DX001 (ip), vehicle: saline with Tween-80) is reported as 90 % of control, the T/C (dose: 200.0 mg/kg/injection, schedule: Q01DX001 (ip), vehicle: saline with Tween-80) is reported as 89 % of control and the T/C (dose: 400.0 mg/kg/injection, schedule: Q01DX001 (ip), vehicle: saline with Tween-80) is reported as 103 % of control.

For `O=C1NC(CCO)C(=O)NC1CCO` (stereo not given), the T/C [1] was 100 % of control, the T/C (dose: 100.0 mg/kg/injection, schedule: Q01DX005 (ip), vehicle: saline) was 100 % of control and the T/C (dose: 200.0 mg/kg/injection, schedule: Q01DX005 (ip), vehicle: saline) was 106 % of control.

`CC(C)CCCC(C)CCOCCN1CCCCC1` (stereo not given) was tested, and the T/C [2] was 100 % of control, the T/C (dose: 25.0 mg/kg/injection, schedule: Q01DX005 (ip), vehicle: saline with Tween-80) was 113 % of control and the T/C [3] was 109 % of control and 114 % of control.

With `COc1ccc(OC)c2c(Cl)cc(NCCCCCCCCNc3cc(Cl)c4c(OC)ccc(OC)c4n3)nc12` the T/C [4] was 101 % of control, the T/C [5] was 101 % of control and the T/C [6] was 100 % of control. For the same compound, the T/C [7] was 100 % of control.

`CCC1C(=O)OCc2c1cc1n(c2=O)CCC1` (stereo not given) was tested, and the T/C (dose: 50.0 mg/kg/injection, schedule: Q01DX001 (ip), vehicle: Klucel (hydroxypropylcellulose) (HPC)) was 123 % of control, the T/C (dose: 100.0 mg/kg/injection, schedule: Q01DX001 (ip), vehicle: Klucel (hydroxypropylcellulose) (HPC)) was 106 % of control and the T/C (dose: 200.0 mg/kg/injection, schedule: Q01DX001 (ip), vehicle: Klucel (hydroxypropylcellulose) (HPC)) was 100 % of control. For the same compound, the T/C (dose: 400.0 mg/kg/injection, schedule: Q01DX001 (ip), vehicle: Klucel (hydroxypropylcellulose) (HPC)) was 108 % of control.

In the case of `CN=C(NCCSCc1ccc2ccccc2n1)NCc1ccccc1`, the T/C (dose: 12.5 mg/kg/injection, schedule: Q01DX005 (ip), vehicle: saline) is reported as 98 % of control, the T/C (dose: 25.0 mg/kg/injection, schedule: Q01DX005 (ip), vehicle: saline) is reported as 109 % of control and the T/C [1] is reported as 101 % of control.

For `COC(=O)C1C(=O)CC2C(C(=O)OC)C(=O)CC12` (stereo not given), the T/C [8] was 99 % of control, the T/C [9] was 95 % of control and the T/C [10] was 98 % of control.

In the case of `CC1=C(c2ccccc2)C2(c3ccccc3)OC(c3ccc([N+](=O)[O-])cc3)=NOC2(C)C1` (stereo not given), the T/C [8] is reported as 93 % of control, the T/C [9] is reported as 93 % of control and the T/C [10] is reported as 96 % of control.

`Cc1cc2nc(CC(=O)c3ccccc3)c(=O)[nH]c2cc1C` was tested, and the T/C (dose: 60.0 mg/kg/injection, schedule: Q01DX005 (ip), vehicle: saline with Tween-80) was 90 % of control, the T/C (dose: 120.0 mg/kg/injection, schedule: Q01DX005 (ip), vehicle: saline with Tween-80) was 90 % of control and the T/C (dose: 240.0 mg/kg/injection, schedule: Q01DX005 (ip), vehicle: saline with Tween-80) was 87 % of control.

With `CCOC(=O)c1cnc(SCc2ccccc2)[nH]c1=O` the T/C (dose: 100.0 mg/kg/injection, schedule: Q04DX003 (ip), vehicle: saline with Tween-80) was 100 % of control, the T/C [11] was 90 % of control and the T/C [12] was 100 % of control.

With `Cc1cc(NC(=S)SCc2ccc(Cl)cc2)ccc1Br` the T/C (dose: 12.5 mg/kg/injection, schedule: Q01DX009 (ip), vehicle: saline with Tween-80) was 124 % of control, the T/C (dose: 25.0 mg/kg/injection, schedule: Q01DX009 (ip), vehicle: saline with Tween-80) was 119 % of control and the T/C [13] was 114 % of control and 124 % of control. For the same compound, the T/C [8] was 124 % of control, the T/C (dose: 50.0 mg/kg/injection, schedule: Q01DX009 (ip), vehicle: suspension in saline) was 108 % of control and the T/C [14] was 118 % of control and 120 % of control. For the same compound, the T/C (dose: 100.0 mg/kg/injection, schedule: Q01DX009 (ip), vehicle: suspension in saline) was 101 % of control, the T/C [15] was 123 % of control and the T/C (dose: 200.0 mg/kg/injection, schedule: Q01DX009 (ip), vehicle: suspension in saline) was 113 % of control.

With `C=C[C@H]1C2=CCOC(=O)C2=CO[C@@H]1OC1OC(CO)C(O)C(O)C1O` (stereo not given in full) the T/C (dose: 0.75 mg/kg/injection, schedule: Q01DX005 (ip), vehicle: water) was 95 % of control, the T/C (dose: 1.5 mg/kg/injection, schedule: Q01DX005 (ip), vehicle: water) was 95 % of control and the T/C (dose: 3.0 mg/kg/injection, schedule: Q01DX005 (ip), vehicle: water) was 95 % of control. The T/C (dose: 6.0 mg/kg/injection, schedule: Q01DX005 (ip), vehicle: water) was 99 % of control.

`O=C1CC2(CC(=O)NC2=O)C(=O)N1` was tested, and the T/C (dose: 100.0 mg/kg/injection, schedule: Q01DX001 (ip), vehicle: saline) was 100 % of control, the T/C (dose: 200.0 mg/kg/injection, schedule: Q01DX001 (ip), vehicle: saline) was 97 % of control and the T/C (dose: 400.0 mg/kg/injection, schedule: Q01DX001 (ip), vehicle: saline) was 92 % of control.

`CCNC(=O)OCc1c(C)nc2n1CCS2` was tested, and the T/C [16] was 115 % of control and the T/C [17] was 112 % of control.

With `O=P(Oc1ccc(OP(=O)(N2CC2)N2CC2)cc1)(N1CC1)N1CC1` the T/C [9] was 154 % of control, the T/C [10] was 181 % of control and the T/C [11] was 154 % of control. For the same compound, the T/C (dose: 264.0 mg/kg/injection, schedule: Q04DX003 (ip), vehicle: saline with Tween-80) was 166 % of control and the T/C [12] was 166 % of control.

`CCN(CCO)CCNc1ccc(C)c2sc3cc(OC)ccc3c(=O)c12` was tested, and the T/C [3] was 102 % of control and 103 % of control and 107 % of control, the T/C (dose: 100.0 mg/kg/injection, schedule: Q01DX005 (ip), vehicle: saline with Tween-80) was 106 % of control and 112 % of control and 117 % of control and the T/C (dose: 200.0 mg/kg/injection, schedule: Q01DX005 (ip), vehicle: saline with Tween-80) was 103 % of control and 119 % of control. The T/C (dose: 400.0 mg/kg/injection, schedule: Q01DX005 (ip), vehicle: saline with Tween-80) was 115 % of control.

With `Cc1ccc(S(=O)(=O)C(CCC(=O)c2ccccc2)(CCC(=O)c2ccccc2)[N+](=O)[O-])cc1` the T/C [16] was 91 % of control, the T/C [17] was 92 % of control and the T/C [18] was 87 % of control.

`NOCc1cccc([N+](=O)[O-])c1` was tested, and the T/C (dose: 50.0 mg/kg/injection, schedule: Q01DX009 (ip), vehicle: saline) was 104 % of control, the T/C (dose: 100.0 mg/kg/injection, schedule: Q01DX009 (ip), vehicle: saline) was 95 % of control and the T/C (dose: 200.0 mg/kg/injection, schedule: Q01DX009 (ip), vehicle: saline) was 100 % of control.

In the case of `Cc1ccc2ccc(CC(O)(c3ccccc3)c3ccccc3)nc2c1`, the T/C [8] is reported as 100 % of control and the T/C [9] is reported as 88 % of control.

`CCOC(=O)N1CCN(C(=S)NNC(C)c2cc3ccccc3cn2)CC1` (stereo not given) was tested, and the T/C (dose: 6.25 mg/kg/injection, schedule: Q01DX005 (ip), vehicle: saline with Tween-80) was 103 % of control and the T/C [2] was 113 % of control.

In the case of `CNC(=S)SC1=NS(=O)(=O)c2ccccc2N1`, the T/C [4] is reported as 111 % of control, the T/C [5] is reported as 99 % of control and 110 % of control and the T/C [6] is reported as 116 % of control and 117 % of control.

For `CCN(CC)CC(C)(C)C(=O)/C=C/c1ccc(Cl)c(Cl)c1`, the T/C (dose: 7.5 mg/kg/injection, schedule: Q01DX005 (ip), vehicle: saline) was 102 % of control, the T/C (dose: 15.0 mg/kg/injection, schedule: Q01DX005 (ip), vehicle: saline) was 101 % of control and the T/C (dose: 30.0 mg/kg/injection, schedule: Q01DX005 (ip), vehicle: saline) was 112 % of control. The T/C (dose: 60.0 mg/kg/injection, schedule: Q01DX005 (ip), vehicle: saline) was 110 % of control, the T/C (dose: 120.0 mg/kg/injection, schedule: Q01DX005 (ip), vehicle: saline) was 118 % of control and the T/C (dose: 240.0 mg/kg/injection, schedule: Q01DX005 (ip), vehicle: saline) was 109 % of control.

In the case of `COc1ccc2oc(=O)n(N=C(C)C)c(=O)c2c1`, the T/C [5] is reported as 97 % of control, the T/C [6] is reported as 95 % of control and the T/C [7] is reported as 94 % of control.

With `O=C1CCCC(Br)c2ccccc21` (stereo not given) the T/C (dose: 100.0 mg/kg/injection, schedule: Q01DX009 (ip), vehicle: distilled water + Tween-80 + alcohol) was 112 % of control, the T/C (dose: 200.0 mg/kg/injection, schedule: Q01DX009 (ip), vehicle: distilled water + Tween-80 + alcohol) was 115 % of control and the T/C (dose: 400.0 mg/kg/injection, schedule: Q01DX009 (ip), vehicle: distilled water + Tween-80 + alcohol) was 106 % of control.

For `Cc1nn(-c2ccccc2)c2c1C(c1ccc([N+](=O)[O-])cc1)C(C#N)=C(N)O2` (stereo not given), the T/C [13] was 102 % of control, the T/C [14] was 90 % of control and the T/C [15] was 107 % of control.

In the case of `COC(=O)CCSC(=S)Nc1ccc(Br)cc1`, the T/C [16] is reported as 100 % of control, the T/C [17] is reported as 100 % of control and the T/C [18] is reported as 102 % of control.
